From patent publication EP0745595A1, “3-(3-Aryloxyphenyl)-1-(substituted methyl)-s-triazine-2,4,6-oxo or thiotrione herbicidal agents” (American Cyanamid Company, priority 1995, dated 1996)

Columns and labels:
Assay type in all cases: in vivo
[1] = tested on: GLYCINE MAX(L) MERR. CV. WILLIAMS; assay: Postemergence herbicidal evaluation, GLXMAW (Soybean, Williams); set-up: key to GLXMAW rating / Herbicidal effect rating, GLXMAW / GLXMAW: 0-9 visual rating scale vs untreated control
Procedure, shortened: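 Soybean seedlings (Williams) were raised in jiffy flats for roughly two weeks, then sprayed postemergence through a nozzle at 40 psi with test compound dispersed in 50/50 acetone/water containing 0.5% TWEEN®20. Treated plants were kept on greenhouse benches under normal care and visually rated on a 0-9 scale four to five weeks later.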

[2] = tested on: ORYZA SATIVA, L. TEBONNET; assay: Postemergence herbicidal evaluation, ORYSAT (Rice, Tebonnet); set-up: key: 0-9 visual rating scale vs untreated control
Experimental: In the tests, seedling plants are grown in jiffy flats for about two weeks. The test compounds are dispersed in 50/50 acetone/water mixtures containing 0.5% TWEEN®20, a polyoxyethylene sorbitan monolaurate surfactant of Atlas Chemical Industries, in sufficient quantities to provide the equivalent of about 0.125 kg to 0.500 kg per hectare of active compound when applied to the plants through a spray nozzle operating at 40 psi for a predetermined time. After spraying, the plants are placed on greenhouse benches and are cared for in the usual manner, commensurate with conventional greenhouse practices. From four to five weeks after treatment, the seedling plants are examined and rated according to the rating system set forth below. Where more than one test is involved for a given compound, the data are averaged.
Plant species employed in these evaluations are reported by header abbreviation, common name and scientific name.
Results of herbicide evaluation are expressed on a rating scale (0-9). The scale is based upon a visual observation of plant stand, vigor, malformation, size, chlorosis and overall plant appearance as compared with a control.

[3] = tested on: GLYCINE MAX(L) MERR. CV. WILLIAMS; assay: Preemergence herbicidal evaluation, GLXMAW (Soybean, Williams); conditions: rated four to five weeks after treatment
Procedure, shortened: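 Greenhouse preemergence test; treated soil cups received compound in aqueous acetone (about 0.125 to 0.50 kg/ha) right after sowing and were assessed visually 4-5 weeks later on a 0-9 scale compared with control plants.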

[4] = tested on: […], PRESL.; assay: Preemergence weed control under flooded paddy conditions, MOOVA (Monochoria); conditions: for Herbicidal effect rating, MOOVA: preemergence, 3-4 weeks after treatment; for MOOVA: pre-weed
Procedure, shortened: (§1)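 Seeds or propagules were planted 0.5 cm deep in silt loam, with flood water held at 1.5 to 3 cm. Compound in 50/50 aqueous/acetone was pipetted into the flood water at about 0.5, 0.25, 0.125 and 0.063 kg/ha. Injury was rated visually on a 0-9 scale against a control 3-4 weeks after treatment.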

[5] = tested on: CYPERUS IRIA; assay: Preemergence weed control under flooded paddy conditions, CYPIR (Rice Flatsedge); conditions: for Herbicidal effect rating, CYPIR: preemergence, 3-4 weeks after treatment; for CYPIR: pre-weed
Procedure, shortened: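 Seeds or propagating organs of rice flatsedge were planted in the top 0.5 cm of silt loam soil in 32 oz. plastic containers, 10.5 cm across and without drainage holes. Water was kept 1.5 to 3 cm above the soil throughout. Treated containers were kept on greenhouse benches, and herbicidal effect was visually rated on a 0-9 scale against a control.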

[6] = tested on: CHENOPODIUM ALBUM, L.; assay: Postemergence herbicidal evaluation, CHEAL (Lambsquarters, Common)
Procedure, shortened: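 Seedlings of common lambsquarters (Chenopodium album) were raised in jiffy flats for roughly two weeks, then sprayed postemergence through a nozzle at 40 psi with test compound dispersed in 50/50 acetone/water containing 0.5% TWEEN®20 surfactant. Plants were kept on greenhouse benches under standard care and rated visually on a 0-9 scale versus controls.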

[7] = tested on: ECHINOCHLOA ORYZOIDES (ARD.)FRITSCH; assay: Preemergence weed control under flooded paddy conditions, ECHORC (Watergrass (Calif.)); conditions: pre-weed
Procedure, shortened: as §1

[8] = tested on: SAGITTARIA PYGMAEA, L.; assay: Preemergence weed control under flooded paddy conditions, SAGPY (Arrowhead (Pygmaea)); conditions: pre-weed
Procedure, shortened: as §1

[9] = tested on: CYPERUS SEROTINUS, ROTTB.; assay: Preemergence weed control under flooded paddy conditions, CYPSE (Flatsedge); conditions: pre-weed
Procedure, shortened: as §1

## COC(=O)Cn1c(=O)n(C)c(=O)n(-c2cc(Oc3ccc(C(F)(F)F)cc3Cl)ccc2Cl)c1=O [Compound 39, Methyl 3-{[2-chloro-5-(2-chloro-α,α,α-trifluoro-p-tolyl)oxy]phenyl}tetrahydro-5-methyl-2,4,6-trioxo-s-triazine-1(2H)-acetate]
[1]; Rate 0.016 kg/ha
  GLXMAW: 3.8
[1]; Rate 0.032 kg/ha
  GLXMAW: 4.5
[1]; Rate 0.063 kg/ha
  GLXMAW: 5.3
[1]; Rate 0.125 kg/ha
  GLXMAW: 5.5
[1]; Rate 0.250 kg/ha
  GLXMAW: 6.3
[1]; Rate 0.500 kg/ha
  GLXMAW: 7.0
[2]; Rate 0.016 kg/ha
  ORYSAT: 2.3
[2]; Rate 0.032 kg/ha
  ORYSAT: 3.3
[2]; Rate 0.063 kg/ha
  ORYSAT: 4.8
[2]; Rate 0.125 kg/ha
  ORYSAT: 4.3
[2]; Rate 0.250 kg/ha
  ORYSAT: 4.8
[2]; Rate 0.500 kg/ha
  ORYSAT: 4.5
[3]; Rate 0.125 kg/ha
  GLXMAW herbicidal rating: 2.0
[3]; Rate 0.250 kg/ha
  GLXMAW herbicidal rating: 2.0
[3]; Rate 0.500 kg/ha
  GLXMAW herbicidal rating: 2.0
[4]; 0.063 kg/ha
  Herbicidal effect rating, MOOVA: 9.0
[4]; 0.125 kg/ha
  Herbicidal effect rating, MOOVA: 9.0
[4]; 0.250 kg/ha
  Herbicidal effect rating, MOOVA: 9.0
[4]; 0.500 kg/ha
  Herbicidal effect rating, MOOVA: 9.0
[4]; Rate 0.031 kg/ha
  MOOVA: 9.0
[4]; Rate 0.063 kg/ha
  MOOVA: 9.0
[4]; Rate 0.125 kg/ha
  MOOVA: 9.0
[4]; Rate 0.250 kg/ha
  MOOVA: 9.0
[5]; 0.063 kg/ha
  Herbicidal effect rating, CYPIR: 9.0
[5]; 0.125 kg/ha
  Herbicidal effect rating, CYPIR: 9.0
[5]; 0.250 kg/ha
  Herbicidal effect rating, CYPIR: 9.0
[5]; 0.500 kg/ha
  Herbicidal effect rating, CYPIR: 9.0
[5]; Rate 0.031 kg/ha
  CYPIR: 9.0
[5]; Rate 0.063 kg/ha
  CYPIR: 9.0
[5]; Rate 0.125 kg/ha
  CYPIR: 9.0
[5]; Rate 0.250 kg/ha
  CYPIR: 9.0
[6]; Rate 0.016 kg/ha
  CHEAL: 6.0
[6]; Rate 0.032 kg/ha
  CHEAL: 8.0
[6]; Rate 0.063 kg/ha
  CHEAL: 9.0
[6]; Rate 0.125 kg/ha
  CHEAL: 9.0
  CHEAL rating: 9.0
[6]; Rate 0.250 kg/ha
  CHEAL: 9.0
  CHEAL rating: 9.0
[6]; Rate 0.500 kg/ha
  CHEAL: 9.0
  CHEAL rating: 9.0

## Cn1c(=O)[nH]c(=O)n(-c2cc(Oc3ccc(C(F)(F)F)cc3Cl)ccc2Cl)c1=O [F, reference compound]
[1]; Rate 0.016 kg/ha
  GLXMAW: 3.5
[1]; Rate 0.032 kg/ha
  GLXMAW: 3.5
[1]; Rate 0.063 kg/ha
  GLXMAW: 4.5
[1]; Rate 0.125 kg/ha
  GLXMAW: 4.0
[1]; Rate 0.250 kg/ha
  GLXMAW: 5.5
[1]; Rate 0.500 kg/ha
  GLXMAW: 5.5
[2]; Rate 0.016 kg/ha
  ORYSAT: 1.5
[2]; Rate 0.032 kg/ha
  ORYSAT: 1.5
[2]; Rate 0.063 kg/ha
  ORYSAT: 2.5
[2]; Rate 0.125 kg/ha
  ORYSAT: 3.0
[2]; Rate 0.250 kg/ha
  ORYSAT: 3.0
[2]; Rate 0.500 kg/ha
  ORYSAT: 3.0
[7]; Rate 0.031 kg/ha
  ECHORC: 0.0
[7]; Rate 0.063 kg/ha
  ECHORC: 0.0
[7]; Rate 0.125 kg/ha
  ECHORC: 0.0
[7]; Rate 0.250 kg/ha
  ECHORC: 0.0
[8]; Rate 0.031 kg/ha
  SAGPY: 0.0
[8]; Rate 0.063 kg/ha
  SAGPY: 0.0
[8]; Rate 0.125 kg/ha
  SAGPY: 0.0
[8]; Rate 0.250 kg/ha
  SAGPY: 0.0
[9]; Rate 0.031 kg/ha
  CYPSE: 0.0
[9]; Rate 0.063 kg/ha
  CYPSE: 0.0
[9]; Rate 0.125 kg/ha
  CYPSE: 0.0
[9]; Rate 0.250 kg/ha
  CYPSE: 0.0
[6]; Rate 0.016 kg/ha
  CHEAL: 4.0
[6]; Rate 0.032 kg/ha
  CHEAL: 5.0
[6]; Rate 0.063 kg/ha
  CHEAL: 6.0
[6]; Rate 0.125 kg/ha
  CHEAL: 8.0
[6]; Rate 0.250 kg/ha
  CHEAL: 9.0
[6]; Rate 0.500 kg/ha
  CHEAL: 9.0
